# How the values were obtained:
# [1] = system: soluble fed and unfed flea midgut preparations; format: biochemical; conditions: substrate BAPNA
# Description: Pellets from the centrifugation step were also collected and resuspended for analysis. Also prepared were whole flea lysates.
# [2] = system: adult fleas; experiment: Flea feeding system: viability and fecundity of fleas fed blood containing protease inhibitors; format: in vivo; conditions: for Adult Survival Female / Adult Survival Male / Adult Survival Total / Fecundity Days 1-7: percent of corresponding control group
# Description: This Example evaluates the effect of a number of protease inhibitors on flea viability and fecundity in a flea feeding system as described by Wade et al. ibid.
# Protease inhibitor compounds were tested in groups of 3 to 6 including appropriate control groups. Inhibitors were not tested in groups of common inhibition types. Rather, they were tested in groups based on the diluent needed to dissolve them. (AEBSF, aprotinin, bestatin, leupeptin, phosphoramidon, soybean trypsin inhibitor and soybean trypsin/chymotrypsin inhibitor were dissolved in water; E-64 and pepstatin were dissolved in ethanol). This reduced the number of control (diluent only) groups needed within a particular assay. Inhibitor concentrations were chosen such that the lower concentration used was within the range recommended by the supplier for that inhibitor. The higher concentration was typically 10 times above the lower concentration and was used to look for dose response.
# The general protocol for all of the assays was as follows: Approximately 2000 newly emerged adult fleas were placed in feeding chambers to feed on normal blood for about 24 to 48 hr. The fleas were prefed for two reasons: The first was to be certain that only fleas that would feed in the feeding system were used in the comparative study.
# The prefed fleas were placed in "minifeeder" feeding chambers at a ratio of about 80 female fleas to about 20 male fleas for a total of about 100 fleas per chamber. Actual total number of fleas per chamber varied from about 90 to 125 fleas. […] Three chambers were prepared for each experimental and control group. A fresh blood meal containing the appropriate inhibitor in 3 ml total volume was placed on each chamber daily through the 7 day extent of an assay.
# On days 3, 5, and 7 of the assay, surviving adult fleas were transferred to clean chambers. The contents of the original chambers were dissolved in about 40 ml of PBS (phosphate-buffered saline) in a 50 ml Falcon tube. The contents of a given tube were then filtered through a preweighed #1 Whatman filter disk inserted into a vacuum filter. The 50 ml tube and the filter funnel were rinsed with distilled water which was then passed through the filter. Once the chamber contents had been filtered, dead adult fleas were removed from the filter paper and placed in a labelled tube so that they could be counted and sexed. The filter paper was then placed into a preweighed 12×75 polypropylene tube and dried in the SpeedVac for 2.5 hr with the heater on. After drying the filter paper was weighed. The weight of the filter paper and tube was subtracted to obtain the dry weight of the eggs and this value was converted to an estimated number of eggs using the formula y=41384.361x+162.37, where x=dry weight of eggs.
# On day 7, adult fleas that had survived the study were frozen, counted and sexed. The numbers were added to the number of male and female fleas that had died during the assay to verify the number of male and female fleas in each chamber at the start of the study.
# Female, male and total adult flea survival were calculated for all experimental and control groups on days 3, 5, and 7 of each assay. Additionally, the number of eggs per surviving female was calculated on days 3, 5 and 7. Female fleas found dead on a given collection date were included in the total number of egg-laying females for the days between that date and the previous collection date, providing a conservative estimate of fecundity. Fecundity values were averaged for the three collection dates to obtain an average for each group over 7 days.
# Results of these studies are presented below in Table 1 and FIG. 6 through FIG. 9. All survival and fecundity values are presented below as a percent of control value.
# [3] = at the concentrations tested in blood meal
Compound,inhibition of ability to cleave BAPNA (proteolytic activity) [1],Adult Survival Female ([2]; 2 μg/ml in blood meal),Adult Survival Male ([2]; 2 μg/ml in blood meal),Adult Survival Total ([2]; 2 μg/ml in blood meal),Fecundity Days 1-7 ([2]; 2 μg/ml in blood meal),Adult Survival Female ([2]; 20 μg/ml in blood meal),Adult Survival Male ([2]; 20 μg/ml in blood meal),Adult Survival Total ([2]; 20 μg/ml in blood meal),Fecundity Days 1-7 ([2]; 20 μg/ml in blood meal),"effect on adult viability [2, 3]","effect on fecundity [2, 3]"
"O=S(=O)(F)Cc1ccccc1 [PMSF, phenylmethane-7-sulfonyl fluoride]",about 50%,–,–,–,–,–,–,–,–,–,–
Aprotinin,~100%,103.2%,104.9%,103.3%,83.2%,100.0%,101.7%,99.9%,84.2%,no significant effect,no significant effect
